In brackets after ≈: the same amount, converted by molar mass. Entries after “also recorded” stand apart in the source; their conditions may differ. Residues, ends and D or L forms follow the SMILES beside them. No end group written: not given here.
Assays:
[1] = tested on: Escherichia coli ATCC 25922; type: cell-based; settings: broth microdilution in MHB, peptide 128 down to 0.5 µg/mL, 20–24 h at 37 °C, no visible growth; range of three independent experiments
How it was run: (§1)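 CLSI broth microdilution in MHB, adapted for cationic peptides, in polypropylene plates; peptides 2-fold from 128 to 0.5 µg/mL, inoculum 2–8 × 10^5 cfu/mL. Incubated 20–24 h at 37 °C; MIC = lowest concentration with no visible growth.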

[2] = tested on: Salmonella enterica serovar Enteritidis (human clinical isolate); type: cell-based; settings: broth microdilution in MHB, peptide 128 down to 0.5 µg/mL, 20–24 h at 37 °C, no visible growth; range of three independent experiments
How it was run: as §1

[3] = tested on: Staphylococcus aureus ATCC 29213; type: cell-based; settings: broth microdilution in MHB, peptide 128 down to 0.5 µg/mL, 20–24 h at 37 °C, no visible growth; range of three independent experiments
How it was run: as §1

porcine red blood cells = experiment: Hemolysis assay (HC50); type: cell-based, pig; settings: for hemolytic activity (in words): porcine RBCs, highest concentration tested 128 µg/mL
Protocol: Peptides were evaluated for toxicity using three independent hemolysis experiments. Whole blood from healthy donor pigs, supplemented with Na Citrate, was purchased from Lampire Biological Laboratories (Pipersville, PA, USA). Red blood cells (RBCs) were washed and isolated by three centrifugation cycles using Roswell Park Memorial Institute medium (RPMI; Thermo-Fisher Scientific) to create a 1% (v/v) RBC solution. […] Following a minimum 30 min incubation at 37 °C, plates were centrifuged and ½ volume from each supernatant was transferred to a new 96-well plate. The absorbance of these wells was measured at 415 nm. To quantify hemolytic activity and determine the AMP concentration that lyses 50% of the RBCs (HC50), absorbance reading from wells containing RBCs treated with 11 μL of a 2% TritonX-100 detergent solution (TX-100) or RPMI (AMP solvent-only) were used to define 100% and 0% hemolysis, respectively. All centrifugation steps were performed at 500× g for five minutes in an Allegra-6R centrifuge (Beckman Coulter, Brea, CA, USA).

HEK293 cells = experiment: alamarBlue cell viability assay (cytotoxicity); type: cell-based, human
Protocol: The human embryonic kidney cell line HEK293 and the corresponding growth media and supplements were purchased from the ATCC. The cells were maintained in Eagle’s Minimum Essential Medium (EMEM) supplemented with 10% fetal bovine serum (FBS) and 1% Penicillin-Streptomycin solution and grown in a 5% CO2 incubator at 37 °C. Approximately 1 × 10^4 cells were distributed to each well of a 96-well flat-bottom cell culture plate (Corning #3595, Corning, NY, USA). Cells were incubated overnight to allow them to adhere. Lyophilized 80 µg peptide aliquots were resuspended to 1.28 mg/mL with UltraPure deionized water and serially diluted in polypropylene 96-well microtiter plates from 128-0.5 µg/mL. TX-100 was diluted to 2% in UltraPure deionized water and added as a positive control. Complete growth medium was added to the peptides and TX-100 containing wells. Spent growth medium of wells with adhered cells was replaced with the contents of wells containing serially diluted peptides or TX-100. Cells were incubated for four hours at 37 °C in 5% CO2 incubator. Growth medium containing peptides or TX-100 was replaced with fresh growth medium containing 10% (v/v) alamarBlue (Bio-Rad Laboratories, Hercules, CA, USA) and incubated for 20 h. Fluorescence was measured at excitation of 540 nm and emission of 590 nm in a Cytation 5 plate reader (Agilent BioTek, Winooski, VT, USA) and results recorded and analyzed with Gen5 software (Agilent BioTek, Winooski, VT, USA). The average fluorescence reads of TX-100 and growth media only wells were used to calculate 0% and 100% cell viability, respectively. The percentage of viable cells at each peptide concentration was determined by: cell viability%=1−fluorescence100% viable− fluorescencepeptide/fluorescence100% viable−fluorescence0% viable×100%

Compound: CC[C@H](C)[C@H](NC(=O)CNC(=O)[C@H](CCCNC(=N)N)NC(=O)[C@H](CC(C)C)NC(=O)[C@H](CC(C)C)NC(=O)CN)C(=O)N[C@@H](CC(C)C)C(=O)NCC(=O)N[C@@H](C)C(=O)NCC(=O)N[C@@H](CCCCN)C(=O)N[C@@H](CCCCN)C(=O)N[C@H](C(=O)N[C@H](C(=O)N[C@@H](CS)C(=O)NCC(=O)N[C@@H](CC(C)C)C(=O)N[C@@H](CO)C(=O)NCC(=O)N[C@@H](CC(C)C)C(=O)N[C@@H](CS)C(=O)O)C(C)C)[C@@H](C)CC [OdMa2] (H-GLLRGILGAGKKIVCGLSGLC-OH)
- MIC, E. coli ATCC 25922 [1]: 4 µg/mL (≈ 1.97 µM)
- MIC, Salmonella Enteritidis [2]: 8 to 16 µg/mL
- MIC, S. aureus ATCC 29213 [3]: 4 to 8 µg/mL
- HC50 (hemolytic 50 concentration) (porcine red blood cells; 1% porcine RBCs in RPMI, peptide 128 down to 1 µg/mL, minimum 30 min at 37 °C, absorbance 415 nm, three independent experiments): 128 µg/mL

Compound: GILRLVTRRFRFSPTNLNRYTVARLVSGVP [BoAr6]
- MIC, E. coli ATCC 25922 [1]: 32 µg/mL
- MIC, Salmonella Enteritidis [2]: 64 µg/mL
- MIC, S. aureus ATCC 29213 [3]: 64 to 128 µg/mL

Compound: GILRSLGWIQMPRSRRRHR [AnFl2]
- MIC, E. coli ATCC 25922 [1]: 16 to 32 µg/mL
- MIC, Salmonella Enteritidis [2]: 128 µg/mL
- MIC, S. aureus ATCC 29213 [3]: > 128 µg/mL

Compound: GILSGLLGAGKKIVC [OdMa4]
- MIC, E. coli ATCC 25922 [1]: 8 to 16 µg/mL
- MIC, Salmonella Enteritidis [2]: 32 µg/mL
- MIC, S. aureus ATCC 29213 [3]: > 128 µg/mL

Compound: GILSGLLGAGKKIVCGLSGMC [RaOm2, rAMPage-discovered AMP, Rana omeimontis]
- MIC, E. coli ATCC 25922 [1]: 64 to 128 µg/mL
- MIC, Salmonella Enteritidis [2]: > 128 µg/mL
- MIC, S. aureus ATCC 29213 [3]: > 128 µg/mL

Compound: GIYTGRLLPVYIPQPRPPHPRLRR [ApCe1]
- MIC, E. coli ATCC 25922 [1]: 4 to 8 µg/mL
- MIC, Salmonella Enteritidis [2]: 16 to 32 µg/mL
- MIC, S. aureus ATCC 29213 [3]: > 128 µg/mL

Compound: GLISGILGAGKKVLC [OdMa9]
- MIC, E. coli ATCC 25922 [1]: 64 to 128 µg/mL
- MIC, Salmonella Enteritidis [2]: 128 µg/mL
- MIC, S. aureus ATCC 29213 [3]: > 128 µg/mL

Compound: GLLGKVLGVGKKVLC [PeNi4, rAMPage-discovered AMP, Pelophylax nigromaculatus]
- MIC, E. coli ATCC 25922 [1]: 8 to 16 µg/mL
- MIC, Salmonella Enteritidis [2]: 4 to 8 µg/mL
- MIC, S. aureus ATCC 29213 [3]: 4 to 8 µg/mL

Compound: GLVGKLVKGGLKLIGHVANG [RaSi1]
- MIC, E. coli ATCC 25922 [1]: 8 to 16 µg/mL
- MIC, Salmonella Enteritidis [2]: > 128 µg/mL
- MIC, S. aureus ATCC 29213 [3]: 64 to 128 µg/mL

Compound: GSSSRSCRCIRLSRLSSKRT [NaVi4]
- MIC, E. coli ATCC 25922 [1]: > 128 µg/mL
- MIC, Salmonella Enteritidis [2]: > 128 µg/mL
- MIC, S. aureus ATCC 29213 [3]: > 128 µg/mL

Compound: GWGLINIKIPPVLHKVSVPLVSKR [ApMe3]
- MIC, E. coli ATCC 25922 [1]: > 128 µg/mL
- MIC, Salmonella Enteritidis [2]: > 128 µg/mL
- MIC, S. aureus ATCC 29213 [3]: > 128 µg/mL

Compound: ISIKEALEHSFFHTVPRKWCKKH [PoSn1]
- MIC, E. coli ATCC 25922 [1]: 64 µg/mL
- MIC, Salmonella Enteritidis [2]: > 128 µg/mL
- MIC, S. aureus ATCC 29213 [3]: > 128 µg/mL

Compound: ITEPVGTKAPTFTSELRGGWLKKR [PaVa3]
- MIC, E. coli ATCC 25922 [1]: > 128 µg/mL
- MIC, Salmonella Enteritidis [2]: > 128 µg/mL
- MIC, S. aureus ATCC 29213 [3]: > 128 µg/mL

Compound: KEERGAPKGCWTKSYPPKPCSGKR [PeNi13]
- MIC, E. coli ATCC 25922 [1]: > 128 µg/mL
- MIC, Salmonella Enteritidis [2]: > 128 µg/mL
- MIC, S. aureus ATCC 29213 [3]: > 128 µg/mL

Compound: KIKIPWGKVKDFLVGGMKAVGKK [TeBi1]
- MIC, E. coli ATCC 25922 [1]: 1 to 2 µg/mL
- MIC, Salmonella Enteritidis [2]: 4 to 8 µg/mL
- MIC, S. aureus ATCC 29213 [3]: 4 to 8 µg/mL
- hemolytic activity (in words) (porcine red blood cells): not hemolytic at the concentrations tested
- HEK293 cell viability (HEK293 cells; at 128 µg/mL, mean of three independent experiments): 40%
- cytotoxicity to HEK293 cells (in words) (HEK293 cells; at concentrations lower than 128 µg/mL): low or no cytotoxicity at lower concentrations

Compound: KLFLTLWKLKR [NaVi3]
- MIC, E. coli ATCC 25922 [1]: 8 to 16 µg/mL
- MIC, Salmonella Enteritidis [2]: 64 µg/mL
- MIC, S. aureus ATCC 29213 [3]: 128 µg/mL

Compound: KYHHIKLRHGRHRRTIH [PaVa2]
- MIC, E. coli ATCC 25922 [1]: > 128 µg/mL
- MIC, Salmonella Enteritidis [2]: > 128 µg/mL
- MIC, S. aureus ATCC 29213 [3]: > 128 µg/mL

Compound: RKIIAVSVHKLCRVKR [BoUs1]
- MIC, E. coli ATCC 25922 [1]: 64 to 128 µg/mL
- MIC, Salmonella Enteritidis [2]: 64 µg/mL
- MIC, S. aureus ATCC 29213 [3]: > 128 µg/mL

Compound: RPRPQQVPPRPPHPRLRR [PaVa1]
- hemolytic activity (in words) (porcine red blood cells): not toxic

Compound: RPRWSHRSRR [PeNi18]
- MIC, E. coli ATCC 25922 [1]: > 128 µg/mL
- MIC, Salmonella Enteritidis [2]: > 128 µg/mL
- MIC, S. aureus ATCC 29213 [3]: > 128 µg/mL

Compound: RRAIFASIRGYLGLRKR [MyGu1]
- MIC, E. coli ATCC 25922 [1]: 4 µg/mL
- MIC, Salmonella Enteritidis [2]: 8 to 16 µg/mL
- MIC, S. aureus ATCC 29213 [3]: 128 µg/mL

Compound: SWLSKSVKKLVNKKNYTRLEKLAKKKLFNE [TeRu4]
- MIC, E. coli ATCC 25922 [1]: 1 µg/mL
- MIC, Salmonella Enteritidis [2]: 2 to 4 µg/mL
- hemolytic activity (in words) (porcine red blood cells): not hemolytic at the concentrations tested; also recorded: not toxic
- toxicity to HEK293 cells (in words) (HEK293 cells; any of the concentrations tested, up to 128 µg/mL): not toxic

Compound: TALKSLSILKKLAKLNM [PoSn2, rAMPage-discovered AMP, Polistes snelleni]
- MIC, E. coli ATCC 25922 [1]: 64 to 128 µg/mL
- MIC, Salmonella Enteritidis [2]: > 128 µg/mL
- MIC, S. aureus ATCC 29213 [3]: > 128 µg/mL

Compound: VAAFAIIGCLCCRRPRR [PoRo1]
- MIC, E. coli ATCC 25922 [1]: > 128 µg/mL
- MIC, Salmonella Enteritidis [2]: > 128 µg/mL
- MIC, S. aureus ATCC 29213 [3]: > 128 µg/mL

Compound: VKCRVRR [ApMe1]
- MIC, E. coli ATCC 25922 [1]: > 128 µg/mL
- MIC, Salmonella Enteritidis [2]: > 128 µg/mL
- MIC, S. aureus ATCC 29213 [3]: > 128 µg/mL

Compound: VPFGLKPR [TeRu1]
- MIC, E. coli ATCC 25922 [1]: > 128 µg/mL
- MIC, Salmonella Enteritidis [2]: > 128 µg/mL
- MIC, S. aureus ATCC 29213 [3]: > 128 µg/mL

Compound: WALRWKTR [PaVi1]
- MIC, E. coli ATCC 25922 [1]: > 128 µg/mL
- MIC, Salmonella Enteritidis [2]: > 128 µg/mL
- MIC, S. aureus ATCC 29213 [3]: > 128 µg/mL
